The test system of this assay is maternal HIV+ sera (antibodies). Nature of the assay: RIA / ELISA binding of maternal HIV+ sera to gp120 and gp41 peptides (Example 3). The arrangement: species or system human. The essentials: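 Maternal sera, diluted 1:50 and 1:500, were bound overnight at 4°C to peptides immobilized at 10 μg/ml (pH 9.6 carbonate) and blocked with 1% BSA. Read-out was ¹²⁵I-labelled anti-human IgG counts or HRP-TMB OD450. Signal with peptide minus without was expressed relative to seronegative serum.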
(In general: An ELISA detects its analyte on a solid surface through an enzyme-linked reagent.)

Setting [1] is: Serum No. 1, Non-Transmission Group.
Setting [2] is: Serum No. 2, Non-Transmission Group.
Setting [3] is: Serum No. 3, Non-Transmission Group.
[4] abbreviates: Serum No. 4, Transmission Group.
Setting [5] is: Serum No. 5, Transmission Group.
Where [6] appears, read: Serum No. 6, Non-Transmission Group.
Where [7] appears, read: Serum No. 7, Non-Transmission Group.
The mark [8] stands for this setting: Serum No. 8, Non-Transmission Group.
Setting [9] is: Serum No. 9, Non-Transmission Group.
The mark [10] stands for this setting: Serum No. 10, Transmission Group.
Setting [11] is: Serum No. 11, Non-Transmission Group.
[12] abbreviates: Serum No. 12, Non-Transmission Group.
The mark [13] stands for this setting: Serum No. 13, Transmission Group.
The mark [14] stands for this setting: Serum No. 14, Transmission Group.
Where [15] appears, read: Serum No. 15, Transmission Group.
Where [16] appears, read: Serum No. 16, Non-Transmission Group.
Setting [17] is: Serum No. 17, Non-Transmission Group.
Setting [18] is: Serum No. 18, Non-Transmission Group.
The mark [19] stands for this setting: Serum No. 19, Transmission Group.
[20] abbreviates: Serum No. 20, Non-Transmission Group.

Consider PQEVVLVNVTGENFNM [Peptide 96], for which the “Binding of maternal sera to peptide (in words)” value (Example 3) was “No binding”. For the same sequence, the “Binding of maternal HIV+ serum to peptide (sera/NHS ratio)” value (from here on “Binding … (sera/NHS ratio)”) runs as follows: under setting [1], “- (specific OD450 or cpm of sera sample binding to peptide divided by the specific OD450 or cpm of NHS sample binding to peptide, which value is less than 2)”; under setting [2], “- (specific OD450 or cpm of sera sample binding to peptide divided by the specific OD450 or cpm of NHS sample binding to peptide, which value is less than 2)”; under setting [3], “- (specific OD450 or cpm of sera sample binding to peptide divided by the specific OD450 or cpm of NHS sample binding to peptide, which value is less than 2)”; under setting [4], “- (specific OD450 or cpm of sera sample binding to peptide divided by the specific OD450 or cpm of NHS sample binding to peptide, which value is less than 2)”; under setting [5], “- (specific OD450 or cpm of sera sample binding to peptide divided by the specific OD450 or cpm of NHS sample binding to peptide, which value is less than 2)”; under setting [6], “- (specific OD450 or cpm of sera sample binding to peptide divided by the specific OD450 or cpm of NHS sample binding to peptide, which value is less than 2)”. Further, the “Binding … (sera/NHS ratio)” value was “- (specific OD450 or cpm of sera sample binding to peptide divided by the specific OD450 or cpm of NHS sample binding to peptide, which value is less than 2)” under setting [7]; “- (specific OD450 or cpm of sera sample binding to peptide divided by the specific OD450 or cpm of NHS sample binding to peptide, which value is less than 2)” under setting [8]; “- (specific OD450 or cpm of sera sample binding to peptide divided by the specific OD450 or cpm of NHS sample binding to peptide, which value is less than 2)” under setting [9]; “- (specific OD450 or cpm of sera sample binding to peptide divided by the specific OD450 or cpm of NHS sample binding to peptide, which value is less than 2)” under setting [10]; “- (specific OD450 or cpm of sera sample binding to peptide divided by the specific OD450 or cpm of NHS sample binding to peptide, which value is less than 2)” under setting [11]; “- (specific OD450 or cpm of sera sample binding to peptide divided by the specific OD450 or cpm of NHS sample binding to peptide, which value is less than 2)” under setting [12]. The “Binding … (sera/NHS ratio)” value by setting is: under setting [13], “- (specific OD450 or cpm of sera sample binding to peptide divided by the specific OD450 or cpm of NHS sample binding to peptide, which value is less than 2)”; under setting [14], “- (specific OD450 or cpm of sera sample binding to peptide divided by the specific OD450 or cpm of NHS sample binding to peptide, which value is less than 2)”; under setting [15], “- (specific OD450 or cpm of sera sample binding to peptide divided by the specific OD450 or cpm of NHS sample binding to peptide, which value is less than 2)”; under setting [16], “- (specific OD450 or cpm of sera sample binding to peptide divided by the specific OD450 or cpm of NHS sample binding to peptide, which value is less than 2)”; under setting [17], “- (specific OD450 or cpm of sera sample binding to peptide divided by the specific OD450 or cpm of NHS sample binding to peptide, which value is less than 2)”; under setting [18], “- (specific OD450 or cpm of sera sample binding to peptide divided by the specific OD450 or cpm of NHS sample binding to peptide, which value is less than 2)”. Moreover, the “Binding … (sera/NHS ratio)” value under setting [19] is on record as “- (specific OD450 or cpm of sera sample binding to peptide divided by the specific OD450 or cpm of NHS sample binding to peptide, which value is less than 2)” and the “Binding … (sera/NHS ratio)” value under setting [20] is “- (specific OD450 or cpm of sera sample binding to peptide divided by the specific OD450 or cpm of NHS sample binding to peptide, which value is less than 2)”.
Take TRKSIRIQRGPGRAF [Peptide 107]: the “Percentage of sera samples demonstrating binding to peptide, non-transmitter” value (Non-transmitter group, n = 13) is recorded as 100%. For the same sequence, the “Binding … (sera/NHS ratio)” value reads like this: under setting [1], “++ (which value is greater than 3)”; under setting [2], “++ (which value is greater than 3)”; under setting [3], “++ (which value is greater than 3)”; under setting [4], “++ (which value is greater than 3)”; under setting [5], “++ (which value is greater than 3)”; under setting [6], “++ (which value is greater than 3)”. In addition, the “Binding … (sera/NHS ratio)” value is given as “+ (which value is between 2 to 3)” under setting [7]; “++ (which value is greater than 3)” under setting [8]; “++ (which value is greater than 3)” under setting [9]; “+ (which value is between 2 to 3)” under setting [10]; “++ (which value is greater than 3)” under setting [11]; “++ (which value is greater than 3)” under setting [12]. Further, the “Binding … (sera/NHS ratio)” value runs as follows: under setting [13], “++ (which value is greater than 3)”; under setting [14], “++ (which value is greater than 3)”; under setting [15], “- (specific OD450 or cpm of sera sample binding to peptide divided by the specific OD450 or cpm of NHS sample binding to peptide, which value is less than 2)”; under setting [16], “++ (which value is greater than 3)”; under setting [17], “++ (which value is greater than 3)”; under setting [18], “++ (which value is greater than 3)”. The “Binding … (sera/NHS ratio)” value under setting [19] is listed as “++ (which value is greater than 3)” and the “Binding … (sera/NHS ratio)” value under setting [20] is reported as “++ (which value is greater than 3)”. For the same sequence, the “Percentage of sera samples demonstrating binding to peptide, transmitter” value (Transmitter / transmission group, n = 7) is reported as 85.7%. In addition, for the setting “all 20 samples”, the “Percent of the maternal serum samples that bound to the peptide” value was 95%.

These data come from patent publication US5556744A, “Methods and compositions for diagnosing and treating certain HIV infected patients” (The Trustees of the University of Pennsylvania, priority 1994, dated 1996).
